Measured values reported in patent US10821115B2, “Compounds that inhibit Mcl-1 protein” (priority 2017, dated 2020).
pIC50: −log10 of the molar value. Like-named read-outs stand apart in the source and are kept apart here.

Assays:
[1] = system: human multiple myeloma cell line, OPM-2; test: Cell viability assay (OPM-2 10 FBS), CellTiter-Glo; assay type: cell-based
Summary of the method: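 OPM-2 cells at 3000 cells/well in RPMI 1640 with 10% FBS were exposed to serially diluted compounds for 16 h at 37 °C, 5% CO2.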

[2] = target: recombinant human Mcl-1 (residues 171-327) / Bim interaction (Homo sapiens (Human), UniProt Q07820); test: biochemical; assay type: binding; conditions: TR-FRET, Mcl-1(171-327) / biotin-Bim (51-76); read-out: Mcl-1 HTRF IC50
[3] = Homo sapiens, OPM-2, 16 h, read-out: OPM-2 10% FBS IC50 IP, OPM-2 cells, 10% FBS, 16 h, CellTiter-Glo
[4] = read-out: OPM-2 10% FBS IC50 IP, OPM-2 cells, 10% FBS, 16 h, CellTiter-Glo

Sequence of recombinant human Mcl-1 (residues 171-327) / Bim interaction (Q07820 171-327): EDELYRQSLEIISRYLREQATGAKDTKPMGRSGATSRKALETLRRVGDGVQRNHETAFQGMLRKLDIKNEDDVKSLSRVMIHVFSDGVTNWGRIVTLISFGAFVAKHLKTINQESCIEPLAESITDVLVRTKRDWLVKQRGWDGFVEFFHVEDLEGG

| SMILES | pIC50 [1, 3] | pIC50 [2] | pIC50 [1, 4] |
| --- | --- | --- | --- |
| CO[C@@]1(CCN2CCOCC2)/C=C/C[C@H](C)[C@@H](C)S(=O)(=O)NC(=O)c2ccc3c(c2)N(C[C@@H]2CC[C@H]21)C[C@@]1(CCCc2cc(Cl)ccc21)CO3 [Example 100419, (1S,3′R,6′R,7′S,8′E,11′S,12′R)-6-chloro-7′-methoxy-11′,12′-dimethyl-7′-(2-(4-morpholinyl)ethyl)-3,4-dihydro-2H,15′H-spiro[naphthalene-1,22′-[20]oxa[13]thia[1,14]diazatetracyclo [14.7.2.0~3,6~.0~19,24~]pentacosa[8,16,18,24]tetraen]-15′-one 13′,13′-dioxide] | 6.38 | 9.56 |  |
| C[C@@H]1[C@@H](C)C/C=C/[C@@](O)(C#CCN2CCCCC2)[C@@H]2CC[C@H]2CN2C[C@@]3(CCCc4cc(Cl)ccc43)COc3ccc(cc32)C(=O)NS1(=O)=O [Example 100421, (1S,3′R,6′R,7′S,8′E,11′S,12′R)-6-chloro-7′-hydroxy-11′,12′-dimethyl-7′-(3-(1-piperidinyl)-1-propyn-1-yl)-3,4-dihydro-2H,15′H-spiro[naphthalene-1,22′-[20]oxa[13]thia[1,14]diazatetracyclo [14.7.2.0~3,6~.0~19,24~]pentacosa[8,16,18,24]tetraen]-15′-one 13′,13′-dioxide] |  | 8.41 | 5.31 |
| C[C@@H]1[C@@H](C)C/C=C/[C@@](O)(C#CCCO)[C@@H]2CC[C@H]2CN2C[C@@]3(CCCc4cc(Cl)ccc43)COc3ccc(cc32)C(=O)NS1(=O)=O [Example 100422, (1S,3′R,6′R,7′S,8′E,11′S,12′R)-6-chloro-7′-hydroxy-7′-(4-hydroxy-1-butyn-1-yl)-11′,12′-dimethyl-3,4-dihydro-2H,15′H-spiro[naphthalene-1,22′-[20]oxa[13]thia[1,14]diazatetracyclo [14.7.2.0~3,6~.0~19,24~]pentacosa[8,16,18,24]tetraen]-15′-one 13′,13′-dioxide] | 6.74 | 9.76 |  |
| COCCC#C[C@]1(OC)/C=C/C[C@H](C)[C@@H](C)S(=O)(=O)NC(=O)c2ccc3c(c2)N(C[C@@H]2CC[C@H]21)C[C@@]1(CCCc2cc(Cl)ccc21)CO3 [Example 100423, (1S,3′R,6′R,7′S,8′E,11′S,12′R)-6-chloro-7′-methoxy-7′-(4-methoxy-1-butyn-1-yl)-11′,12′-dimethyl-3,4-dihydro-2H,15′H-spiro[naphthalene-1,22′-[20]oxa[13]thia[1,14]diazatetracyclo [14.7.2.0~3,6~.0~19,24~]pentacosa[8,16,18,24]tetraen]-15′-one 13′,13′-dioxide] | 7.00 | 10.25 |  |
| C[C@@H]1[C@@H](C)C/C=C/[C@@](O)(C#CCN2CCCCC2)[C@@H]2CC[C@H]2CN2C[C@@]3(CCCc4cc(Cl)ccc43)COc3ccc(cc32)C(=O)NS1(=O)=O [Example 100424, (1S,3′R,6′R,7′S,8′E,11′S,12′R)-6-chloro-7′-hydroxy-11′,12′-dimethyl-7′-(3-(1-piperidinyl)-1-propyn-1-yl)-3,4-dihydro-2H,15′H-spiro[naphthalene-1,22′-[20]oxa[13]thia[1,14]diazatetracyclo [14.7.2.0~3,6~.0~19,24~]pentacosa[8,16,18,24]tetraen]-15′-one 13′,13′-dioxide] |  | 9.60 | 6.33 |
| CO[C@]1(CCN2CCN3CCOC[C@@H]3C2)/C=C/C[C@H](C)[C@@H](C)S(=O)(=O)NC(=O)c2ccc3c(c2)N(C[C@@H]2CC[C@H]21)C[C@@]1(CCCc2cc(Cl)ccc21)CO3 [Example 100425, (1S,3′R,6′R,7′R,8′E,11′S,12′R)-6-chloro-7′-(2-((9aS)-hexahydropyrazino[2,1-c][1,4]oxazin-8(1H)-yl)ethyl)-7′-methoxy-11′,12′-dimethyl-3,4-dihydro-2H,15′H-spiro[naphthalene-1,22′-[20]oxa[13]thia[1,14]diazatetracyclo [14.7.2.0~3,6~.0~19,24~]pentacosa[8,16,18,24]tetraen]-15′-one 13′,13′-dioxide] | 6.14 | 9.78 |  |
| CO[C@]1(C#CCCO)/C=C/C[C@H](C)[C@@H](C)S(=O)(=O)NC(=O)c2ccc3c(c2)N(C[C@@H]2CC[C@H]21)C[C@@]1(CCCc2cc(Cl)ccc21)CO3 [Example 100426, (1S,3′R,6′R,7′R,8′E,11′S,12′R)-6-chloro-7′-(4-hydroxy-1-butyn-1-yl)-7′-methoxy-11′,12′-dimethyl-3,4-dihydro-2H,15′H-spiro[naphthalene-1,22′-[20]oxa[13]thia[1,14]diazatetracyclo [14.7.2.0~3,6~.0~19,24~]pentacosa[8,16,18,24]tetraen]-15′-one 13′,13′-dioxide] | 6.96 | 9.71 |  |
| CO[C@@]1(C#CCCO)/C=C/C[C@H](C)[C@@H](C)S(=O)(=O)NC(=O)c2ccc3c(c2)N(C[C@@H]2CC[C@H]21)C[C@@]1(CCCc2cc(Cl)ccc21)CO3 [Example 100427, (1S,3′R,6′R,7′S,8′E,11′S,12′R)-6-chloro-7′-(4-hydroxy-1-butyn-1-yl)-7′-methoxy-11′,12′-dimethyl-3,4-dihydro-2H,15′H-spiro[naphthalene-1,22′-[20]oxa[13]thia[1,14]diazatetracyclo [14.7.2.0~3,6~.0~19,24~]pentacosa[8,16,18,24]tetraen]-15′-one 13′,13′-dioxide] | 6.47 | 9.68 |  |
| CO[C@@]1(CCN2CCCCC2)/C=C/C[C@H](C)[C@@H](C)S(=O)(=O)NC(=O)c2ccc3c(c2)N(C[C@@H]2CC[C@H]21)C[C@@]1(CCCc2cc(Cl)ccc21)CO3 [Example 100428, (1S,3′R,6′R,7′S,8′E,11′S,12′R)-6-chloro-7′-methoxy-11′,12′-dimethyl-7′-(2-(1-piperidinyl)ethyl)-3,4-dihydro-2H,15′H-spiro[naphthalene-1,22′-[20]oxa[13]thia[1,14]diazatetracyclo [14.7.2.0~3,6~.0~19,24~]pentacosa[8,16,18,24]tetraen]-15′-one 13′,13′-dioxide] | 6.66 | 9.68 |  |
| CO[C@@]1(CCN2CCN3CCOC[C@@H]3C2)/C=C/C[C@H](C)[C@@H](C)S(=O)(=O)NC(=O)c2ccc3c(c2)N(C[C@@H]2CC[C@H]21)C[C@@]1(CCCc2cc(Cl)ccc21)CO3 [Example 100429, (1S,3′R,6′R,7′S,8′E,11′S,12′R)-6-chloro-7′-(2-((9aS)-hexahydropyrazino[2,1-c][1,4]oxazin-8(1H)-yl)ethyl)-7′-methoxy-11′,12′-dimethyl-3,4-dihydro-2H,15′H-spiro[naphthalene-1,22′-[20]oxa[13]thia[1,14]diazatetracyclo [14.7.2.0~3,6~.0~19,24~]pentacosa[8,16,18,24]tetraen]-15′-one 13′,13′-dioxide] | 5.85 | 9.75 |  |
| CO[C@@]1(CCN2CCN(C)C(=O)C2)/C=C/C[C@H](C)[C@@H](C)S(=O)(=O)NC(=O)c2ccc3c(c2)N(C[C@@H]2CC[C@H]21)C[C@@]1(CCCc2cc(Cl)ccc21)CO3 [Example 100430, (1S,3′R,6′R,7′S,8′E,11′S,12′R)-6-chloro-7′-methoxy-11′,12′-dimethyl-7′-(2-(4-methyl-3-oxo-1-piperazinyl)ethyl)-3,4-dihydro-2H,15′H-spiro[naphthalene-1,22′-[20]oxa[13]thia[1,14]diazatetracyclo [14.7.2.0~3,6~.0~19,24~]pentacosa[8,16,18,24]tetraen]-15′-one 13′,13′-dioxide] | 6.45 | 10.24 |  |
| CO[C@@]1(CCN2CC(C)(N(C)C)C2)/C=C/C[C@H](C)[C@@H](C)S(=O)(=O)NC(=O)c2ccc3c(c2)N(C[C@@H]2CC[C@H]21)C[C@@]1(CCCc2cc(Cl)ccc21)CO3 [Example 100431, (1S,3′R,6′R,7′S,8′E,11′S,12′R)-6-chloro-7′-(2-(3-(dimethylamino)-3-methyl-1-azetidinyl)ethyl)-7′-methoxy-11′,12′-dimethyl-3,4-dihydro-2H,15′H-spiro[naphthalene-1,22′-[20]oxa[13]thia[1,14]diazatetracyclo [14.7.2.0~3,6~.0~19,24~]pentacosa[8,16,18,24]tetraen]-15′-one 13′,13′-dioxide] | 6.54 | 10.37 |  |
| C[C@@H]1[C@@H](C)C/C=C/[C@@](O)(C#CCC2CCOCC2)[C@@H]2CC[C@H]2CN2C[C@@]3(CCCc4cc(Cl)ccc43)COc3ccc(cc32)C(=O)NS1(=O)=O [Example 100432, (1S,3′R,6′R,7′S,8′E,11′S,12′R)-6-chloro-7′-hydroxy-11′,12′-dimethyl-7′-(3-(tetrahydro-2H-pyran-4-yl)-1-propyn-1-yl)-3,4-dihydro-2H,15′H-spiro[naphthalene-1,22′-[20]oxa[13]thia[1,14]diazatetracyclo [14.7.2.0~3,6~.0~19,24~]pentacosa[8,16,18,24]tetraen]-15′-one 13′,13′-dioxide] | 6.15 | 9.64 |  |
| C[C@@H]1[C@@H](C)C/C=C/[C@](O)(C#CCC2CCOCC2)[C@@H]2CC[C@H]2CN2C[C@@]3(CCCc4cc(Cl)ccc43)COc3ccc(cc32)C(=O)NS1(=O)=O [Example 100433, (1S,3′R,6′R,7′R,8′E,11′S,12′R)-6-chloro-7′-hydroxy-11′,12′-dimethyl-7′-(3-(tetrahydro-2H-pyran-4-yl)-1-propyn-1-yl)-3,4-dihydro-2H,15′H-spiro[naphthalene-1,22′-[20]oxa[13]thia[1,14]diazatetracyclo [14.7.2.0~3,6~.0~19,24~]pentacosa[8,16,18,24]tetraen]-15′-one 13′,13′-dioxide] | 6.53 | 10.59 |  |
